Measured values taken from patent publication US20250145606A1 (Arcus Biosciences, Inc., priority 2023, published 2025).

Legend:
Details in all cases: biochemical, HTRF KinEASE-TK
[1] = molecular target: c-Kit (Homo sapiens (Human), UniProt P10721); assay: Inhibition of c-Kit kinase activity (HTRF KinEASE-TK); assay type: biochemical
Experimental: (§1) Inhibition of c-Kit, PDGFRα, PDGFRβ, CSFIR and FLT3 Kinase Activity
(§2) Compounds were evaluated to determine the potency with which they inhibit the kinase activity of the following panel of tyrosine kinases: c-Kit (SignalChem, Product #: K06-11BG), PDGFRα (SignalChem, Product #: P12-18G), PDGFRβ (SignalChem, Product #: P13-11G), CSFIR (SignalChem, Product #: C74-11G) and FLT3 (Invitrogen, Product #: PR4666C). Activity was determined as a function of phosphorylated biotinylated TK peptide generated by the transfer of phosphate from ATP as measured by the use of the HTRF KinEASE-TK assay kit (Cisbio, Product #: 62TKOPEJ). Levels of phosphorylated biotinylated TK peptide (Part 61TKOBLC of KinEASE assay kit) are quantified by its capture by phosphor-TK-Antibody-Cryptate (Part of KinEASE assay kit) and XL665-labeled Streptavidin (Part 610SAXLG of KinEASE assay kit) followed by measurement of Time-Resolved Fluorescence Resonance Energy Transfer (TR-FRET) signal. On the day of the assay, compounds were solubilized in DMSO and dispensed into a 384-well white Opti-plate (PerkinElmer, catalog #6007290) to generate a 22 point 1:2 titration. Enzyme solution was prepared for each of the tyrosine kinases in 50 mM HEPES, pH 7.4, 5 mM MgCl2 for c-Kit or 10 mM MgCl2 for FLT3, CSFIR, PDGFRa and PDGFRβ, 2 mM MnCl2, 0.01% Brij-35 and 0.01% BSA. Working enzyme concentrations were prepared for c-Kit at 2 nM (2×), PDGFRa and PDGFRß at 10 nM (2×), CSFIR at 2 nM (2×) and FLT3 at 0.4 nM (2×). Five microliters of enzyme dilution of each tyrosine kinase were added to their respective 384-well white Opti-plate pre-dispensed with compound and allowed to incubate for 1 h at rt. Utilizing the same enzyme buffer recipe, 2x substrate mixes were prepared for each enzyme as follows: For c-Kit, 1.6 μM (2×) TK substrate and 16 μM (2×) ATP (Promega, catalog #V915). For PDGFRα, 3.2 μM TK substrate and 1 μM ATP. For PDGFRβ, 3.2 μM TK substrate and 40 μM ATP. For CSFIR, […] TK substrate and 20 μM ATP. For FLT3, 3.2 μM TK substrate and 100 μM ATP. Reactions were initiated by addition of 5 μL of the respective 2x substrate mix to each well of the plates containing the respective tyrosine kinase enzymes and were allowed to proceed for 120 minutes at rt, except for FLT3, the reaction time is 45 min. Following the reaction, 10 μL of detection mix consisting of 0.2 μM (2×) of Streptavidin-XL665 and 2 μM (2×) of TK-Antibody-Cryptate prepared in detection buffer (Part 62SDBRDF of KinEASE assay kit) was added and then allowed to incubate for 60 min. The TR-FRET signal was quantified by measuring the ratio of emission at 665 nm to 620 nm after excitation at 320 nm by reading on a PerkinElmer Envision multimode reader. Compound potencies (IC50 values) were determined using a standard 4-parameter non-linear regression fit.

[2] = molecular target: PDGFRα (Homo sapiens (Human), UniProt P16234); assay: Inhibition of PDGFRα kinase activity (HTRF KinEASE-TK)
Sequence of PDGFRα (P16234 24-1089): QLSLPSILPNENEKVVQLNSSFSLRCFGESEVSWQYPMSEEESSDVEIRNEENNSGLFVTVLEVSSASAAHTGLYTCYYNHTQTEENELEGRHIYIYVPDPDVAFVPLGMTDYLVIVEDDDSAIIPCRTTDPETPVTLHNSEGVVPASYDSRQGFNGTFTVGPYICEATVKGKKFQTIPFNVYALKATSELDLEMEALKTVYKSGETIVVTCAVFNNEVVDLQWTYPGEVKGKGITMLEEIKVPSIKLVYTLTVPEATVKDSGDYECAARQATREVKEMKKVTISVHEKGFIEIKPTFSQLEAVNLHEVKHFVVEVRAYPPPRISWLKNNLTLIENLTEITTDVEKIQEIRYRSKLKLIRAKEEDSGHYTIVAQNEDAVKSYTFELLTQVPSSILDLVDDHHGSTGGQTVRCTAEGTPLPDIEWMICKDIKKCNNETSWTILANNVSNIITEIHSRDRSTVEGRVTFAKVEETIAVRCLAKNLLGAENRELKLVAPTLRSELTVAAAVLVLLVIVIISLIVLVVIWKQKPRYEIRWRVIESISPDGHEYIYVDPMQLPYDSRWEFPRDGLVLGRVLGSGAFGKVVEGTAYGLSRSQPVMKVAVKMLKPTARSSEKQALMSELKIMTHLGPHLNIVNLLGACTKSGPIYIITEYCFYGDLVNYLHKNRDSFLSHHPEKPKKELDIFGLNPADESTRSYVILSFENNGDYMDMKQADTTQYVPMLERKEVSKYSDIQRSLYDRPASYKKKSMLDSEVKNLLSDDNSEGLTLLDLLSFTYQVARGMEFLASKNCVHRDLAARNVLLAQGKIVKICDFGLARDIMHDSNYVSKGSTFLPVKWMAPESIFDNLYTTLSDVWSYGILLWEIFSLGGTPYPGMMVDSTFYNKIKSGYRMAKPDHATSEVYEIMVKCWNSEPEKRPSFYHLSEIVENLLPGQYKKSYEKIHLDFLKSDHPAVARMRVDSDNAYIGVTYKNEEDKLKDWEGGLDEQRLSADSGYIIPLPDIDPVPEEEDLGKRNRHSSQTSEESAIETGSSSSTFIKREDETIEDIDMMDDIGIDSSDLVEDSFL
Experimental: as §1, §2

[3] = molecular target: CSF1R (Homo sapiens (Human), UniProt P07333); assay: Inhibition of CSF1R kinase activity (HTRF KinEASE-TK)
Sequence of CSF1R (P07333 20-972): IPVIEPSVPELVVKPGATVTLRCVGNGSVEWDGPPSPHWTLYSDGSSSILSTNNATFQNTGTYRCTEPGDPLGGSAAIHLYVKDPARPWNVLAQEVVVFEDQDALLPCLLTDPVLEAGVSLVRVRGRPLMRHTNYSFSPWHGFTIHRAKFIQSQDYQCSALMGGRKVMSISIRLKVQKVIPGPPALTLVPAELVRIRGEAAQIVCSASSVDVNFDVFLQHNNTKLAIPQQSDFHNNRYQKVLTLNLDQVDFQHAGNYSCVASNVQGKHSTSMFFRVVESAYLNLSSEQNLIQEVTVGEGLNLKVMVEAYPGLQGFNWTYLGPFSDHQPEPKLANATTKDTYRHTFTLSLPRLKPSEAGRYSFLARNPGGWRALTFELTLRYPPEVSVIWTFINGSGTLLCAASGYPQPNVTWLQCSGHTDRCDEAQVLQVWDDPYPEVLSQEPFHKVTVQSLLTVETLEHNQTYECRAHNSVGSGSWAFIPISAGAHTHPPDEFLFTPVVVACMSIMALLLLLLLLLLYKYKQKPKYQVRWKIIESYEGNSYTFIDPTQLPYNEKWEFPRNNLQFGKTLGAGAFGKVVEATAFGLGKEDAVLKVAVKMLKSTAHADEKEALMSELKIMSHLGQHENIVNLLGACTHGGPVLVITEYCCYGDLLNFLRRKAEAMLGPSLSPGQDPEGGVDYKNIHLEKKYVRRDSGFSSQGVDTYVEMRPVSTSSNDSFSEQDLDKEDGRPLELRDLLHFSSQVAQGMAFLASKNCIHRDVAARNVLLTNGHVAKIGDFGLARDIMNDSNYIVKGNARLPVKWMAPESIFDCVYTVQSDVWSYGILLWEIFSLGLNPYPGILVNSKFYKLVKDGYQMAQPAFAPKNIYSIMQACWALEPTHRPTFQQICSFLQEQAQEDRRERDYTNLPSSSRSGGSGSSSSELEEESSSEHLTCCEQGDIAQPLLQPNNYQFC
Experimental: as §1, §2

[4] = molecular target: PDGFRβ (Homo sapiens (Human), UniProt P09619); assay: Inhibition of PDGFRβ kinase activity (HTRF KinEASE-TK)
Sequence of PDGFRβ (P09619 33-1106): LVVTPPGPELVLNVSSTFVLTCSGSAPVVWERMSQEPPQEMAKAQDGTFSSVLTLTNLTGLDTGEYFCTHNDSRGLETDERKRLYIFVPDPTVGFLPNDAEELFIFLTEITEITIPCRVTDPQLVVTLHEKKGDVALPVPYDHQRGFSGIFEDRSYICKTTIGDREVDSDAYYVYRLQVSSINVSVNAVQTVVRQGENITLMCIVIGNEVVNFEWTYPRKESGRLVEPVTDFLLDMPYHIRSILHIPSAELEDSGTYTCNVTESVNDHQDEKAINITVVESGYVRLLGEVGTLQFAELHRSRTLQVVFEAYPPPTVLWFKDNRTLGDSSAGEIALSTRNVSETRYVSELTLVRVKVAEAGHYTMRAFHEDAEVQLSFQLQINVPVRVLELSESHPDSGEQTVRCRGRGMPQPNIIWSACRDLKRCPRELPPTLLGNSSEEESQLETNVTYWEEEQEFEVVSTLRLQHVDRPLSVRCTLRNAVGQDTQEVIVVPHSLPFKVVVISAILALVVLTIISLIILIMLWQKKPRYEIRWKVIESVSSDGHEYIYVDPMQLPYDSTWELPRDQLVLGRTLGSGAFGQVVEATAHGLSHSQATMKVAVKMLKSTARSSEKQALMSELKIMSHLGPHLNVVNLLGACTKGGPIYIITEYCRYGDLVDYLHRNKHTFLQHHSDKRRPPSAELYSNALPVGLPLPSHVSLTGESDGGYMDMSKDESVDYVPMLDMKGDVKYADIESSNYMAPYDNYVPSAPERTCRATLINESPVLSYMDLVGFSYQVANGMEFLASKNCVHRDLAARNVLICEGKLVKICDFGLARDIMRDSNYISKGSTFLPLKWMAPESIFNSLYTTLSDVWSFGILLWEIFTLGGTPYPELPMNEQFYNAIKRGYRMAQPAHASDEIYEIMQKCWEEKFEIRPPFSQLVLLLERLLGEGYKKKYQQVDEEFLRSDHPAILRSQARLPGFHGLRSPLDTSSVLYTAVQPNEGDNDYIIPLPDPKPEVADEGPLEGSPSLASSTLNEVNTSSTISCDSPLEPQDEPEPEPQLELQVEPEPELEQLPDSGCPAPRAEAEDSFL
Experimental: as §1, §2

Sequence of c-Kit (P10721 26-976): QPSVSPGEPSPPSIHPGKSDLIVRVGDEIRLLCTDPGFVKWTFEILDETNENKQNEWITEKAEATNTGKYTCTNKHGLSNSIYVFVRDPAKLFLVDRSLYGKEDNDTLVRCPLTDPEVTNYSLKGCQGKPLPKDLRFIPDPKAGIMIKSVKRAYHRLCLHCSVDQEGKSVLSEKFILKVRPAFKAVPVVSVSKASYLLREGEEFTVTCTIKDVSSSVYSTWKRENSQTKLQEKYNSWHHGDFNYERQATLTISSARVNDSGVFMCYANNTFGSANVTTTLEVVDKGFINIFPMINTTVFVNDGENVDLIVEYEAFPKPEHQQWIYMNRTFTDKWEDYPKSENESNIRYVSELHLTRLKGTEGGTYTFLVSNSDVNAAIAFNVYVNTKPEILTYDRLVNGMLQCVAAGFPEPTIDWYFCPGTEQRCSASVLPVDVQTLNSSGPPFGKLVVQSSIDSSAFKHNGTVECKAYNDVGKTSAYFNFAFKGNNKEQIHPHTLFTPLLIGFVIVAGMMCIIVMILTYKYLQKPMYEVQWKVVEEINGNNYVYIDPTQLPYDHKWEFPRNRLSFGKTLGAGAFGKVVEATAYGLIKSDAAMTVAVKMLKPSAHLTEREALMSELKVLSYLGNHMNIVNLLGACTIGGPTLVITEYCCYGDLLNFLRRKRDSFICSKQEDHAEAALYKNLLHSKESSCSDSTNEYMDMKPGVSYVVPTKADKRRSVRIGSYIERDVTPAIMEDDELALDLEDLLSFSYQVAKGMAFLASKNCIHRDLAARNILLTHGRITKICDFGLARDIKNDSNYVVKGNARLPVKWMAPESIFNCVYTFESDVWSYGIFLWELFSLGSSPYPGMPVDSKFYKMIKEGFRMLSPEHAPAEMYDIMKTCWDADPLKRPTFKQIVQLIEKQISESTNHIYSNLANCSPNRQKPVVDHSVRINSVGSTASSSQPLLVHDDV

SMILES	IC50 [1]	IC50 [2]	IC50 [3]	IC50 [4]
Cc1cc(F)c(C(=O)Nc2cc3c(cn2)COC3)cc1NC(=O)c1cnc(N)s1 [Example 112, 2-Amino-N-[5-(1,3-dihydrofuro [3,4-c]pyridin-6-ylcarbamoyl)-4-fluoro-2-methylphenyl]-1,3-thiazole-5-carboxamide]	< 0.1 µM	> 1 µM	0.1 to 1 µM	0.1 to 1 µM
Cc1cc(F)c(C(=O)Nc2ccn(CCO)n2)cc1NC(=O)c1cnc(N)s1 [Example 144, 2-Amino-N-[4-fluoro-5-[[1-(2-hydroxyethyl)pyrazol-3-yl]carbamoyl]-2-methylphenyl]-1,3-thiazole-5-carboxamide]	< 0.1 µM	> 1 µM	> 1 µM	> 1 µM
Cc1ncc(C(=O)Nc2cc(C(=O)Nc3cnc(C4CC4)cn3)c(F)cc2C)s1 [Example 43, N-[5-[(5-cyclopropylpyrazin-2-yl)carbamoyl]-4-fluoro-2-methylphenyl]-2-methyl-1,3-thiazole-5-carboxamide]	< 0.1 µM	> 1 µM	> 1 µM	> 1 µM
Cc1cc(F)c(C(=O)Nc2ccc(OC3CC3)cn2)cc1NC(=O)c1cnc(C(F)F)s1 [Example 59, N-[5-[(5-Cyclopropyloxypyridin-2-yl)carbamoyl]-4-fluoro-2-methylphenyl]-2-(difluoromethyl)-1,3-thiazole-5-carboxamide]	< 0.1 µM	> 1 µM	> 1 µM	> 1 µM
Cc1cc(F)c(C(=O)Nc2ccc(OC3CC3)cn2)cc1NC(=O)c1cnc(NC(=O)[C@@H]2CCOC2)s1 [Example 107, N-[5-[(5-cyclopropyloxypyridin-2-yl)carbamoyl]-4-fluoro-2-methylphenyl]-2-[[(3R)-oxolane-3-carbonyl]amino]-1,3-thiazole-5-carboxamide]	< 0.1 µM	> 1 µM	> 1 µM	0.1 to 1 µM
Cc1ncc(C(=O)Nc2cc(C(=O)Nc3ccc(OCC4CC4)cn3)c(F)cc2C)s1 [Example 65, N-[5-[[5-(cyclopropylmethoxy)pyridin-2-yl]carbamoyl]-4-fluoro-2-methylphenyl]-2-methyl-1,3-thiazole-5-carboxamide]	< 0.1 µM	> 1 µM	> 1 µM	> 1 µM

Second part, the molecule after the results:

IC50 [1]	IC50 [2]	IC50 [3]	IC50 [4]	SMILES
0.1 to 1 µM	> 1 µM	> 1 µM	> 1 µM	Cc1cc(F)c(C(=O)Nc2ccc(OC3CC3)cn2)cc1NC(=O)c1cnc(C2CC2)s1 [Example 60, 2-Cyclopropyl-N-[5-[(5-cyclopropyloxypyridin-2-yl)carbamoyl]-4-fluoro-2-methylphenyl]-1,3-thiazole-5-carboxamide]
0.1 to 1 µM	> 1 µM	> 1 µM	> 1 µM	Cc1ncc(C(=O)Nc2cc(C(=O)NCCCN3CCOCC3)c(F)cc2C)s1 [Example 57, N-[4-Fluoro-2-methyl-5-(3-morpholin-4-ylpropylcarbamoyl)phenyl]-2-methyl-1,3-thiazole-5-carboxamide]
< 0.1 µM	0.1 to 1 µM	0.1 to 1 µM	0.1 to 1 µM	COc1ccc(NC(=O)c2cc(NC(=O)c3cnc(N)s3)c(C)cc2F)c(F)c1 [Example 228, 2-Amino-N-[4-fluoro-5-[(2-fluoro-4-methoxyphenyl)carbamoyl]-2-methylphenyl]-1,3-thiazole-5-carboxamide]
< 0.1 µM	> 1 µM	> 1 µM	> 1 µM	Cc1ncc(C(=O)Nc2cc(C(=O)Nc3cnc(C4CC4)nc3)c(F)cc2C)s1 [Example 42, N-[5-[(2-cyclopropylpyrimidin-5-yl)carbamoyl]-4-fluoro-2-methylphenyl]-2-methyl-1,3-thiazole-5-carboxamide]
< 0.1 µM	0.1 to 1 µM	0.1 to 1 µM	< 0.1 µM	Cc1cc(F)c(C(=O)Nc2ccc(OC3CC3)cc2F)cc1NC(=O)c1cnc(N)s1 [Example 128]
